From patent EP3262942A1, “SELENODIARYLS FOR USE AS MICROBICIDE OR AS MEDICINE” (Evonik Degussa GmbH, priority 2016, dated 2018)

Tests used:
M. grisea CM = experiment: microbe, parasite or virus in culture; format: cell-based, Magnaporthe grisea; conditions: Pyricularia grisea, 24 h, read-out: Aktivität gegenüber M. grisea CM
Penicillium notatum = experiment: Growth test in microtiter plates, HA medium, 24 h, visual evaluation; format: cell-based; design: key: +: kein Wachstum im Vergleich zur Wachstumskontrolle; -: Wachstum wie Wachstumskontrolle
M. grisea H2O = experiment: microbe, parasite or virus in culture; format: cell-based, Magnaporthe grisea; conditions: Pyricularia grisea, H2O, 24 h, read-out: Aktivität gegenüber M. grisea H2O
P. infestans = experiment: microbe, parasite or virus in culture; format: cell-based, Phytophthora infestans; conditions: Phytophthora infestans, 24 h, read-out: Aktivität gegenüber P. infestans
[1] = tested on: alle getesteten Pathogene; format: cell-based; conditions: 5-50 µg/mL
Setaria italica = experiment: Crop plant growth test, seeds on filter discs, 4 days, visual evaluation; format: in vivo
How it was run: (§1)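 Compounds dried from DMSO onto filter discs; about 12 seeds per well with 200 µl sterile tap water, incubated 4 days in a humid chamber under 16 h light/8 h dark. Visual scoring: + means at least 75 % growth inhibition versus control, − means less than 75 %.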

Lepidium sativum = experiment: as above; format: in vivo
How it was run: as §1

Botrytis cinerea = experiment: microbe, parasite or virus in culture; format: cell-based; conditions: for inhibition of growth at 5 µg/mL / inhibition of growth at 10 µg/mL / inhibition of growth at 25 µg/mL / inhibition of growth at 50 µg/mL: Botrytis cinerea, 24 h, read-out: Aktivität gegenüber B. cinerea
Candida albicans = experiment: Growth test in microtiter plates, HA medium, 24 h, visual evaluation; format: cell-based; design: key: +: kein Wachstum im Vergleich zur Wachstumskontrolle; -: Wachstum wie Wachstumskontrolle
Paecilomyces variotii = experiment: as above; format: cell-based; design: key: +: kein Wachstum im Vergleich zur Wachstumskontrolle; -: Wachstum wie Wachstumskontrolle
Mucor miehei = experiment: as above; format: cell-based; design: key to Aktivität gegenüber M. miehei: +: kein Wachstum im Vergleich zur Wachstumskontrolle; -: Wachstum wie Wachstumskontrolle

SMILES | inhibition of growth at 5 µg/mL (M. grisea CM) | inhibition of growth at 10 µg/mL (M. grisea CM) | inhibition of growth at 25 µg/mL (M. grisea CM) | inhibition of growth at 50 µg/mL (M. grisea CM) | Aktivität gegenüber P. notatum (Penicillium notatum; 10µg/mL) | Aktivität gegenüber P. notatum (Penicillium notatum; 50µg/mL) | inhibition of growth at 5 µg/mL (M. grisea H2O) | inhibition of growth at 10 µg/mL (M. grisea H2O) | inhibition of growth at 25 µg/mL (M. grisea H2O) | inhibition of growth at 50 µg/mL (M. grisea H2O) | inhibition of growth at 5 µg/mL (P. infestans) | inhibition of growth at 10 µg/mL (P. infestans) | inhibition of growth at 25 µg/mL (P. infestans) | inhibition of growth at 50 µg/mL (P. infestans) | Aktivität im Wachstums- und Keimungshemmungstest gegen die getesteten Pathogene [1] | Aktivität gegenüber Nutzpflanzen: S. italica (Setaria italica; 10µg/R) | Aktivität gegenüber Nutzpflanzen: S. italica (Setaria italica; 20µg/R) | Aktivität gegenüber Nutzpflanzen: S. italica (Setaria italica; 50µg/R) | Aktivität gegenüber Nutzpflanzen: L. sativum (Lepidium sativum; 10µg/R) | Aktivität gegenüber Nutzpflanzen: L. sativum (Lepidium sativum; 20µg/R) | other results
COc1cc(C)cc([Se]c2cc(C)cc(OC)c2O)c1O [Verbindung 20, Bis(2-hydroxy-3-methoxy-5-methylphenyl)selen] | 25 to 50% | > 75% | > 75% | > 75% | - | - | 25 to 50% | > 75% | > 75% | > 75% | 0 to 25% | 0 to 25% | > 75% | > 75% | fungizider Effekt | - (weniger als 75 % Wachstumshemmung im Vergleich zur Kontrolle) | - (weniger als 75 % Wachstumshemmung im Vergleich zur Kontrolle) | - (weniger als 75 % Wachstumshemmung im Vergleich zur Kontrolle) | - (weniger als 75 % Wachstumshemmung im Vergleich zur Kontrolle) | - (weniger als 75 % Wachstumshemmung im Vergleich zur Kontrolle) | Aktivität gegenüber Nutzpflanzen: L. sativum (Lepidium sativum; 50µg/R): - (weniger als 75 % Wachstumshemmung im Vergleich zur Kontrolle); inhibition of growth at 5 µg/mL (Botrytis cinerea): 0 to 25%; inhibition of growth at 10 µg/mL (Botrytis cinerea): 0 to 25%; inhibition of growth at 25 µg/mL (Botrytis cinerea): 0 to 25%; inhibition of growth at 50 µg/mL (Botrytis cinerea): 0 to 25%; Aktivität gegenüber C. albicans (Candida albicans; 10µg/mL): -; Aktivität gegenüber C. albicans (Candida albicans; 50µg/mL): -; Aktivität gegenüber P. variotii (Paecilomyces variotii; 10µg/mL): -; Aktivität gegenüber P. variotii (Paecilomyces variotii; 50µg/mL): -; Aktivität gegenüber M. miehei (Mucor miehei; 10µg/mL): -; Aktivität gegenüber M. miehei (Mucor miehei; 50µg/mL): -
Oc1c(Cl)cc(F)cc1[Se]c1cc(F)cc(Cl)c1O [Verbindung 24, Bis(3-chlor-5-fluor-2-hydroxyphenyl)selen] | > 75% | > 75% | > 75% | > 75% | + | + | > 75% | > 75% | > 75% | > 75% | > 75% | > 75% | > 75% | > 75% | durchgehende Aktivität gegen alle Pathogene | - (weniger als 75 % Wachstumshemmung im Vergleich zur Kontrolle) | + (mind. 75 % Wachstumshemmung im Vergleich zur Kontrolle) | - (weniger als 75 % Wachstumshemmung im Vergleich zur Kontrolle) | - (weniger als 75 % Wachstumshemmung im Vergleich zur Kontrolle) | + (mind. 75 % Wachstumshemmung im Vergleich zur Kontrolle) | Effekt auf S. italica (Setaria italica; […]): deutlichen negativen Effekt; Aktivität gegenüber Nutzpflanzen: L. sativum (Lepidium sativum; 50µg/R): - (weniger als 75 % Wachstumshemmung im Vergleich zur Kontrolle); Effekt auf L. sativum (Lepidium sativum; […]): deutlichen negativen Effekt; mikrobizide Wirksamkeit gegenüber B. cinerea (Botrytis cinerea): mikrobizide Wirksamkeit; inhibition of growth at 5 µg/mL (Botrytis cinerea): > 75%; inhibition of growth at 10 µg/mL (Botrytis cinerea): > 75%; inhibition of growth at 25 µg/mL (Botrytis cinerea): > 75%; inhibition of growth at 50 µg/mL (Botrytis cinerea): > 75%; Aktivität gegenüber C. albicans (Candida albicans; 10µg/mL): +; Aktivität gegenüber C. albicans (Candida albicans; 50µg/mL): +; Aktivität gegenüber P. variotii (Paecilomyces variotii; 10µg/mL): +; Aktivität gegenüber P. variotii (Paecilomyces variotii; 50µg/mL): -; Aktivität gegenüber M. miehei (Mucor miehei; 10µg/mL): +; Aktivität gegenüber M. miehei (Mucor miehei; 50µg/mL): +
